Here are results for 3 compounds from patent US5422126A, “Halogen compositions for water treatment and method of preparation thereof” (priority 1993, dated 1995).

Series [1] in a line: Water solubility of solid halogenated hydantoins and amount of halogen dissolved in a saturated solution. Conditions: for Amount of halogen dissolved in saturated solution: saturated solution in water.
A short description of another series: physchem. The following applies: water.

Values after ≈ are worked out from the molar mass of the structure shown.

`CC1(C)C(=O)N(Br)C(=O)N1Br` [Dibromodimethylhydantion, 1,3-dibromo-5,5-dimethylhydantoin]: in series [1], the “Amount of halogen dissolved in saturated solution” value was 542 mg/L as Cl2. For the same compound, the solubility in series [1] (water) was 1100 µg/mL (≈ 3.85 mM). On to `CC1(C)C(=O)N(Cl)C(=O)N1Br` [Bromo-chlorodimethylhydantoin, bromochlorodimethylhydantoin], for which the “Amount of halogen dissolved in saturated solution” value in series [1] stood at 825 mg/L as Cl2. The compound further gave a Water solubility in series [1] (solid halogenated hydantoin in water) of 0.15%. In “physchem”, `CC1(C)C(=O)N(Cl)C(=O)N1Cl` [Dichlorodimethylhydantoin, dichlorodimethylhydantoin] displayed a solubility of 2100 µg/mL (≈ 10.7 mM).

What is called solubility is how much of the substance goes into solution per volume. A low value points to a poorly soluble substance.
